This passage reports Dmax and DC50 results from patent US12539292B2, “BRM targeting compounds and associated methods of use” (Arvinas Operations, Inc., priority 2018, dated 2026).

In this test the target is T1, BRM (Homo sapiens, UniProt P51531).
T1 construct: In-Cell Western Screen of BRM Degradation in SW1573 Cells; endogenous in cells; host or cells: SW1573
The test can be described thus: In-cell Western screen of BRM degradation in SW1573 cells (Dmax and DC50). In kind it is cell-based. As to conditions: for Dmax: SW1573, % degraded, when tested at the top concentration of between 0.3 and 10 μM, read-out: BRM Dmax (%); for DC50: degradation of BRM, read-out: BRM DC50. In outline:
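Near-infrared imaging on a LI-COR Odyssey (800 and 680 nm channels) quantifies BRM remaining in fixed SW1573 cells. Cells are dosed for 18-20 h at 0.1% final DMSO, and degradation is expressed as Dmax and DC50.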

By Dmax is commonly meant the greatest extent of degradation seen. As usually defined, the DC50 is the concentration at which degradation of the target reaches its halfway point.

T1 sequence (P51531 whole entry): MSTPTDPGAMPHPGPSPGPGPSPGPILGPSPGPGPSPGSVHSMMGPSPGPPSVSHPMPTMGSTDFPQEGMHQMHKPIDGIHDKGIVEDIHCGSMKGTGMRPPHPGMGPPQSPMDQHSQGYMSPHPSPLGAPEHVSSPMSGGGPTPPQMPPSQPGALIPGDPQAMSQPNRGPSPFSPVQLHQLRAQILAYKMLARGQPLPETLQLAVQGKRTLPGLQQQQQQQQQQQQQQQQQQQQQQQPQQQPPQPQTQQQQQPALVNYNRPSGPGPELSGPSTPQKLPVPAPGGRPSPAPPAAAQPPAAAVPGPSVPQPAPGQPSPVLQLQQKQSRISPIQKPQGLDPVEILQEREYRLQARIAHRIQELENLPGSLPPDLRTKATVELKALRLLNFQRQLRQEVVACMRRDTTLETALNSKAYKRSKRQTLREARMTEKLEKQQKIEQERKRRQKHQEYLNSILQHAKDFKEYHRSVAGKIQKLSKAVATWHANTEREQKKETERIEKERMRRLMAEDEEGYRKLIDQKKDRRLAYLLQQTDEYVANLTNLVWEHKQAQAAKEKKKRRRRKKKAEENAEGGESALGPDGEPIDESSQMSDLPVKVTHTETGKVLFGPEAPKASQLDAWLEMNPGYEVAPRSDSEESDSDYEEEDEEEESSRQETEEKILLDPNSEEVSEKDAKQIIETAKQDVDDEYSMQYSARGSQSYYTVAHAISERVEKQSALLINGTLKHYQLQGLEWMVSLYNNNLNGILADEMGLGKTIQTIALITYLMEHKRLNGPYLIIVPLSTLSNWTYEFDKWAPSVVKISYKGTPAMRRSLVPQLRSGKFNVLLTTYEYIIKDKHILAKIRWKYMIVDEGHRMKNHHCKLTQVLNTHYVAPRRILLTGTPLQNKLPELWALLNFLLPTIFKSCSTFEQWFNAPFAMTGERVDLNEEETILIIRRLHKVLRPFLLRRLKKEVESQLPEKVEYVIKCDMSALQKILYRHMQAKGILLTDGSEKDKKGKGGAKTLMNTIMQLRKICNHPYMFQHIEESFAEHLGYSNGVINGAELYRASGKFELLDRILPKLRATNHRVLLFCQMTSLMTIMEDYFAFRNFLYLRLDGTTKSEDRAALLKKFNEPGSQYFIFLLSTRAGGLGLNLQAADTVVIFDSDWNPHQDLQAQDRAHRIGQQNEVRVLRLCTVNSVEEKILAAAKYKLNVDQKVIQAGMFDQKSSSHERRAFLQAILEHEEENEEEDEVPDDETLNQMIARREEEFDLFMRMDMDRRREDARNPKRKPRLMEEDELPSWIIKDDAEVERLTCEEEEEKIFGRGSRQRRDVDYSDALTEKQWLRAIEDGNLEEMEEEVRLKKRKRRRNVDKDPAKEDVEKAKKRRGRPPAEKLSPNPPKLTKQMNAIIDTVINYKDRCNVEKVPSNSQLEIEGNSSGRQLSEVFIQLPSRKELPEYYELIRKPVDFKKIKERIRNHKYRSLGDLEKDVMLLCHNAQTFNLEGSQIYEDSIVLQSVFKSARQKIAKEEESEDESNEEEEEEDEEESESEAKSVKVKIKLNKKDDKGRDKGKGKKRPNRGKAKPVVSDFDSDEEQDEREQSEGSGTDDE

As for `Cc1ncsc1-c1ccc([C@H](C)NC(=O)[C@@H]2C[C@@H](O)CN2C(=O)[C@@H](c2cc(OCCN3CCN(CCO[C@H]4C[C@H](Oc5cc(N6C7CCC6CN(c6cc(-c8ccccc8O)nnc6N)C7)ccn5)C4)CC3)no2)C(C)C)cc1` [compound 408, (2S,4R)-1-((2R)-2-(3-(2-(4-(2-((1r,3r)-3-((4-(3-(3-amino-6-(2-hydroxyphenyl)pyridazin-4-yl)-3,8-diazabicyclo[3.2.1]octan-8-yl)pyridin-2-yl)oxy)cyclobutoxy)ethyl)piperazin-1-yl)ethoxy)isoxazol-5-yl)-3-methylbutanoyl)-4-hydroxy-N-((S)-1-(4-(4-methylthiazol-5-yl)phenyl)ethyl)pyrrolidine-2-carboxamide], the Dmax was > 75% and the DC50 is < 2.5 nM.
In the case of `CC(C)[C@H](C(=O)N1C[C@H](O)C[C@H]1C(=O)N[C@@H](C)c1ccc(-c2c(F)cnn2C)cc1)c1cc(OCCN2CCN(CCOc3cc(N4C5CCC4CN(c4cc(-c6ccccc6O)nnc4N)C5)ccn3)CC2)no1` [compound 409, (2S,4R)-1-((2S)-2-(3-(2-(4-(2-((4-(3-(3-amino-6-(2-hydroxyphenyl)pyridazin-4-yl)-3,8-diazabicyclo[3.2.1]octan-8-yl)pyridin-2-yl)oxy)ethyl)piperazin-1-yl)ethoxy)isoxazol-5-yl)-3-methylbutanoyl)-N-((S)-1-(4-(4-fluoro-1-methyl-1H-pyrazol-5-yl)phenyl)ethyl)-4-hydroxypyrrolidine-2-carboxamide], the DC50 is > 30 nM.
In the case of `CC(C)[C@@H](C(=O)N1C[C@H](O)C[C@H]1C(=O)N[C@@H](C)c1ccc(-c2c(F)cnn2C)cc1)c1cc(OCCN2CCN(CCOc3cc(N4C5CCC4CN(c4cc(-c6ccccc6O)nnc4N)C5)ccn3)CC2)no1` [compound 410, (2S,4R)-1-((2R)-2-(3-(2-(4-(2-((4-(3-(3-amino-6-(2-hydroxyphenyl)pyridazin-4-yl)-3,8-diazabicyclo[3.2.1]octan-8-yl)pyridin-2-yl)oxy)ethyl)piperazin-1-yl)ethoxy)isoxazol-5-yl)-3-methylbutanoyl)-N-((S)-1-(4-(4-fluoro-1-methyl-1H-pyrazol-5-yl)phenyl)ethyl)-4-hydroxypyrrolidine-2-carboxamide], the maximal degradation (Dmax) is > 75% and the DC50 is < 2.5 nM.
The like results for `Cc1ncsc1-c1ccc([C@H](C)NC(=O)[C@@H]2C[C@@H](O)CN2C(=O)C(c2cc(O[C@H]3C[C@H](N4CCC(O[C@H]5C[C@H](Oc6cc(N7C8CCC7CN(c7cc(-c9ccccc9O)nnc7N)C8)ccn6)C5)CC4)C3)no2)C(C)C)cc1` (stereo partly drawn) [compound 411, (2S,4R)-1-(2-(3-((1R,3S)-3-(4-((1r,3R)-3-((4-(3-(3-amino-6-(2-hydroxyphenyl)pyridazin-4-yl)-3,8-diazabicyclo[3.2.1]octan-8-yl)pyridin-2-yl)oxy)cyclobutoxy)piperidin-1-yl)cyclobutoxy)isoxazol-5-yl)-3-methylbutanoyl)-4-hydroxy-N-((S)-1-(4-(4-methylthiazol-5-yl)phenyl)ethyl)pyrrolidine-2-carboxamide] were, in that order, > 75% and < 2.5 nM.
On to `Cc1nccn1-c1ccc([C@H](C)NC(=O)[C@@H]2C[C@@H](O)CN2C(=O)[C@H](c2cc(N3CCN(CCN4CCC(O[C@H]5C[C@H](Oc6cc(N7C8CCC7CN(c7cc(-c9ccccc9O)nnc7N)C8)ccn6)C5)CC4)CC3)no2)C(C)C)cc1` [compound 412, (2S,4R)-1-((2S)-2-(3-(4-(2-(4-((1r,3r)-3-((4-(3-(3-amino-6-(2-hydroxyphenyl)pyridazin-4-yl)-3,8-diazabicyclo[3.2.1]octan-8-yl)pyridin-2-yl)oxy)cyclobutoxy)piperidin-1-yl)ethyl)piperazin-1-yl)isoxazol-5-yl)-3-methylbutanoyl)-4-hydroxy-N-((S)-1-(4-(2-methyl-1 H-imidazol-1-yl)phenyl)ethyl)pyrrolidine-2-carboxamide], for which the DC50 was > 30 nM.
